Measurements: PubChem BioAssay AID463206 (Broad Institute, 2010)
Active and inactive are the calls of the source.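 The calls were made as follows: active = caspase luminescence falls with dose and the half-maximal concentration AC50 from the fitted curve is at or below a set limit; inconclusive = flat fit at 30 to 70% signal loss, or invalid fit; inactive = AC50 above the limit, or signal rises instead.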

System: INS-1E cytokine-induced caspase-3/7, Caspase-Glo luminescence, 48 h
Assay: suppression of cytokine-driven beta-cell apoptosis – INS-1E rat cells, luminescence, orthogonal assay for beta-cell apoptosis protection project, dose response (AID 463206)

Question: For `Cc1cc(C)c2nc(NNC(=O)c3ccc(S(=O)(=O)N4CCc5ccccc5C4)cc3)sc2c1`, which AC50 is on record?
Answer: Its AC50 is > 26 µM (inactive).

Question: `Oc1c(C(Nc2ccccn2)c2cccnc2)cc(Cl)c2cccnc12` (stereo not drawn) was tested. Which AC50 did it give?
Answer: Its AC50 is > 26 µM (inactive).

Question: For `CNC[C@@H](Cc1ccccc1)NC[C@@H](CC1CCCCC1)NCCCc1ccccc1`, which AC50 is on record?
Answer: The AC50 was > 26 µM (inactive).

Question: With `Nc1ccc(Nc2ccc([N+](=O)[O-])cc2[N+](=O)[O-])cc1` as the compound, how does the AC50 read?
Answer: The AC50 was > 26 µM (inactive).

Question: Which AC50 does the source give for `Cn1nccc1C(=O)N/N=C/c1c(O)ccc2ccccc12` here?
Answer: The AC50 was > 26 µM (inactive).

Question: For `O=[N+]([O-])c1ccc(/C=N/Nc2ccnc3cc(Cl)ccc23)o1`, which AC50 is on record?
Answer: Its AC50 is 19.8 µM.

Question: With `CC1CCC(C(C)C)C(OC(=O)Cn2c(-c3ccc(Cl)cc3)[n+](C)c3ccccc32)C1` (stereo not drawn) as the compound, how does the AC50 read?
Answer: The AC50 was > 26 µM (inactive).

Question: `COc1cnc(-c2ccccn2)nc1NC(C)C` was tested. Which AC50 did it give?
Answer: Its AC50 is > 12 µM (inactive).

Question: Which AC50 does the source give for `CNc1nc(N/N=C/c2cc3c(cc2[N+](=O)[O-])OCO3)nc(Nc2ccccc2)n1` here?
Answer: The AC50 was > 26 µM (inactive).

Question: How did the AC50 turn out when `Cn1ncnc2c(=O)n(C)c(=O)nc1-2` was run?
Answer: Its AC50 is > 26 µM (inactive).

Question: `CC(=O)C1=NN(c2ccccc2)C(c2cccs2)N1c1ccc(N(C)C)cc1` (stereo not drawn) was tested. Which AC50 did it give?
Answer: The AC50 was > 26 µM (inactive).

Question: How did the AC50 turn out when `O=C1C(=O)c2ccccc2-c2ccccc21` was run?
Answer: The AC50 was > 26 µM (inactive).

Question: How did the AC50 turn out when `CCN(CC)c1ccc(C(=O)N/N=C/c2ccccc2OC(F)F)cc1` was run?
Answer: Its AC50 is > 26 µM (inactive).

Question: Which AC50 does the source give for `COc1cc(-c2nc3ccc(C)cn3c2NCc2ccccc2)ccc1-c1cccc(Cl)c1` here?
Answer: Its AC50 is > 26 µM (inactive).

Question: `CCCC(=O)NC(c1ccccc1OC)c1ccc2cccnc2c1O` (stereo not drawn) was tested. Which AC50 did it give?
Answer: Its AC50 is > 26 µM (inactive).

Question: With `C=CCN(CC=C)Cc1c[nH]c2ccccc12` as the compound, how does the AC50 read?
Answer: The AC50 was 26.3 µM.

Question: Which AC50 does the source give for `CCCOc1ccc(Cc2c(Cl)nc(SC)nc2NC)cc1` here?
Answer: The AC50 was > 26 µM (inactive).

Question: How did the AC50 turn out when `COc1ccc(NS(=O)(=O)c2ccc(-c3coc(C)n3)cc2)cc1OC` was run?
Answer: The AC50 was > 26 µM (inactive).

Question: For `Cc1ccc(S(=O)(=O)Nc2cc(Cl)c(O)c3ncccc23)cc1`, which AC50 is on record?
Answer: The AC50 was > 26 µM (inactive).

Question: With `CN(C)S(=O)(=O)c1cccc(CSCc2cccc(S(=O)(=O)N(C)C)c2)c1` as the compound, how does the AC50 read?
Answer: The AC50 was > 26 µM (inactive).

Question: For `C=C1C(=O)O[C@@H]2C[C@@H](C)[C@@H]3C=CC(=O)[C@@]3(C)[C@@H](O)[C@H]12`, which AC50 is on record?
Answer: The AC50 was > 26 µM (inactive).

Question: For `Clc1ccc(OCCN2CCN(c3ncnc4sccc34)CC2)cc1`, which AC50 is on record?
Answer: Its AC50 is > 26 µM (inactive).

Question: For `Cc1cc(C)cc(Oc2cc(NC(=O)c3cn(C)nc3C)cc([N+](=O)[O-])c2)c1`, which AC50 is on record?
Answer: The AC50 was > 26 µM (inactive).

Question: For `Cc1ccc(-n2ncc3c2CCCC3NC(=O)c2ocnc2C)cc1C` (stereo not drawn), which AC50 is on record?
Answer: Its AC50 is > 26 µM (inactive).

Question: `NC(N)=NC(N)=Nc1ccc(SC(F)(F)F)cc1` was tested. Which AC50 did it give?
Answer: Its AC50 is > 26 µM (inactive).

Question: With `CC(=O)c1c(C)[nH]c(C(=O)OCC(=O)Nc2ccc(C)cc2[N+](=O)[O-])c1C` as the compound, how does the AC50 read?
Answer: Its AC50 is > 26 µM (inactive).

Question: For `O=[N+]([O-])c1ccc(S(=O)(=O)c2ccccc2)nc1`, which AC50 is on record?
Answer: The AC50 was > 26 µM (inactive).

Question: For `CN1CCN(C2=C(NS(=O)(=O)c3cccs3)C(=O)c3ccccc3C2=O)CC1`, which AC50 is on record?
Answer: The AC50 was > 26 µM (inactive).

Question: Which AC50 does the source give for `CCOc1ccc(-n2c(-c3ccc(OC)cc3)c[n+]3c2CCCCC3)cc1` here?
Answer: Its AC50 is > 26 µM (inactive).

Question: How did the AC50 turn out when `c1nc(NCc2ccc3c(c2)OCO3)c2cc(-c3ccc4c(c3)OCCO4)ccc2n1` was run?
Answer: Its AC50 is > 26 µM (inactive).

Question: `CC1=NN(c2nc(-c3ccc(C)cc3)cs2)C(=O)C1N=Nc1ccc(C(N)=O)cc1` (stereo not drawn) was tested. Which AC50 did it give?
Answer: The AC50 was > 26 µM (inactive).

Question: With `CC(C)[C@H]1C(=O)O[C@H](C(C)C)C(=O)N(C)[C@@H](C(C)C)C(=O)O[C@H](C(C)C)C(=O)N(C)[C@@H](C(C)C)C(=O)O[C@H](C(C)C)C(=O)N1C` as the compound, how does the AC50 read?
Answer: The AC50 was > 26 µM (inactive).

Question: Which AC50 does the source give for `COc1cnc(-c2ccccn2)nc1Oc1ccc(C(C)(C)C)cc1` here?
Answer: Its AC50 is > 26 µM (inactive).

Question: For `C#CC(=O)N(c1cccc(OC)c1)C(C(=O)NC1CCCC1)c1cccs1` (stereo not drawn), which AC50 is on record?
Answer: The AC50 was > 26 µM (inactive).

Question: For `CCc1cc[n+](C2=C([O-])c3ccccc3C(=O)/C2=N\S(=O)(=O)c2cccs2)cc1`, which AC50 is on record?
Answer: The AC50 was > 26 µM (inactive).

Question: `Cc1ccc(C(=O)Nc2cccc3[nH]c(C(F)(F)F)nc23)cc1` was tested. Which AC50 did it give?
Answer: Its AC50 is > 26 µM (inactive).

Question: How did the AC50 turn out when `N=c1c2c(n(Cc3cccc(Cl)c3)c3c1CCC3)CCCC2` was run?
Answer: The AC50 was > 26 µM (inactive).

Question: With `O=C(CCC(=O)Nc1ccc(Br)cc1)N/N=C/c1ccccc1O` as the compound, how does the AC50 read?
Answer: Its AC50 is > 26 µM (inactive).

Question: How did the AC50 turn out when `C=C(C(=O)c1ccccc1)C(C(=C)C(=O)c1ccccc1)c1ccc(OC)cc1` was run?
Answer: Its AC50 is > 26 µM (inactive).

Question: How did the AC50 turn out when `O=C(CNc1cccc2ccccc12)N/N=C/c1ccc([N+](=O)[O-])o1` was run?
Answer: Its AC50 is > 26 µM (inactive).

Question: `Cc1cccc2cc(-c3ccccc3)c(-c3ccccc3)c[n+]12` was tested. Which AC50 did it give?
Answer: The AC50 was > 26 µM (inactive).

Question: `Cn1cccc1/C=N/NC(=O)Cc1cccs1` was tested. Which AC50 did it give?
Answer: The AC50 was > 26 µM (inactive).

Question: With `CCOc1cc(S(=O)(=O)NCc2ccncc2)ccc1Cl` as the compound, how does the AC50 read?
Answer: Its AC50 is > 26 µM (inactive).

Question: With `CCCOCc1ccc(O)c2ncccc12` as the compound, how does the AC50 read?
Answer: The AC50 was > 26 µM (inactive).

Question: For `COc1cc(SC#N)ccc1N=Cc1c(C)[nH]n(-c2ccc(C)cc2)c1=O`, which AC50 is on record?
Answer: Its AC50 is > 26 µM (inactive).

Question: With `COc1ccc(-n2cc(-c3ccc(C)cc3)[n+]3c2SCC3)cc1` as the compound, how does the AC50 read?
Answer: Its AC50 is > 26 µM (inactive).

Question: With `C/C(=N\NC(=O)C(C)Oc1ccc([N+](=O)[O-])cc1)c1ccccn1` (stereo not drawn) as the compound, how does the AC50 read?
Answer: The AC50 was > 26 µM (inactive).

Question: For `CN(c1ccccc1)S(=O)(=O)c1ccc(NC(=O)c2nc(S(C)(=O)=O)ncc2Cl)cc1`, which AC50 is on record?
Answer: Its AC50 is > 26 µM (inactive).
